Test results taken from the supplement of paper PMC10307832.

Experiments:
Assay in all cases: relative viability (nuclei count vs DMSO), 5 days (fraction); higher = more cells survive
Bortezomib + Vorinostat = compound: CC(C)C[C@H](NC(=O)[C@H](Cc1ccccc1)NC(=O)c1cnccn1)B(O)O [Bortezomib] + O=C(CCCCCCC(=O)Nc1ccccc1)NO [Vorinostat] (partner 1 µM)
How it was run: (§1)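 After 5 days of treatment, lung cancer cells in 1536-well plates were fixed and stained in a single step (final 0.05% Triton X-100, 1% formaldehyde, 1 ug/ml Hoechst) and their nuclei counted on 4× images. Treatment had been applied by pin tool the day after seeding as one drug alone or as a fixed anchor-drug dose with five library-drug doses (not always all listed) in √10 steps. Relative viability is the nuclei count of treated wells divided by that of vehicle wells, and values are medians of duplicate plates.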

Bortezomib + Palbociclib = compound: CC(C)C[C@H](NC(=O)[C@H](Cc1ccccc1)NC(=O)c1cnccn1)B(O)O [Bortezomib] + CC(=O)c1c(C)c2cnc(Nc3ccc(N4CCNCC4)cn3)nc2n(C2CCCC2)c1=O [Palbociclib] (partner 0.5 µM)
How it was run: as §1

Obatoclax + Linsitinib = compound: COC1=CC(c2cc3ccccc3[nH]2)=N/C1=C\c1[nH]c(C)cc1C [Obatoclax] + C[C@]1(O)C[C@@H](c2nc(-c3ccc4ccc(-c5ccccc5)nc4c3)c3c(N)nccn32)C1 [Linsitinib] (partner 1 µM)
How it was run: as §1

[1] = compound: CC1=CC(=NN1)NC2=CC(=NC(=N2)/C=C/C3=CC=CC=C3)N4CCN(CC4)C + COc1cccc2cc(-c3nc([C@H]4CC[C@H](C(=O)O)CC4)n4ncnc(N)c34)[nH]c12 [OSI-027] (partner 0.5 µM)
How it was run: as §1

Row | Cell Line | relative viability (Bortezomib + Vorinostat; first compound 0.0002 µM) | relative viability (Bortezomib + Vorinostat; first compound 0.002 µM) | relative viability (Bortezomib + Vorinostat; first compound 0.006325 µM) | relative viability (Bortezomib + Vorinostat; first compound 0.02 µM) | relative viability (Bortezomib + Palbociclib; first compound 0.0002 µM) | relative viability (Bortezomib + Palbociclib; first compound 0.002 µM) | relative viability (Bortezomib + Palbociclib; first compound 0.006325 µM) | relative viability (Bortezomib + Palbociclib; first compound 0.02 µM) | relative viability (Obatoclax + Linsitinib; first compound 0.01 µM) | relative viability (Obatoclax + Linsitinib; first compound 0.03162 µM) | relative viability (Obatoclax + Linsitinib; first compound 0.1 µM) | relative viability (Obatoclax + Linsitinib; first compound 0.3162 µM) | relative viability (Obatoclax + Linsitinib; first compound 1 µM) | relative viability ([1]; first compound 0.08 µM) | relative viability ([1]; first compound 0.253 µM) | relative viability ([1]; first compound 0.8 µM) | relative viability ([1]; first compound 2.53 µM) | relative viability ([1]; first compound 8 µM) | relative viability (Bortezomib + Vorinostat; first compound 0.000632 µM) | relative viability (Bortezomib + Palbociclib; first compound 0.000632 µM)
1 | NCI-H23 | 0.603 | 0.495 | 0.132 | 0.0977 | 0.456 | 0.398 | 0.158 | 0.13 | 0.588 | 0.598 | 0.647 | 0.606 | 0.598 | 0.417 | 0.563 | 0.539 | 0.291 | 0.115 | – | –
2 | NCI-H322M | 0.841 | 0.826 | 0.393 | 0.491 | 0.486 | 0.463 | 0.441 | 0.404 | 0.943 | 0.958 | 0.941 | 0.893 | 0.89 | 0.504 | 0.546 | 0.538 | 0.364 | 0.278 | 0.696 | 0.448
3 | NCI-H358 | 0.699 | 0.405 | 0.0638 | 0.0768 | 0.158 | 0.0987 | 0.0826 | 0.0983 | 0.735 | 0.504 | 0.394 | 0.344 | 0.278 | 0.769 | 0.933 | 0.483 | 0.0714 | 0.0592 | 0.71 | 0.11
4 | NCI-H441 | 0.865 | 0.243 | 0.138 | 0.141 | 0.22 | 0.129 | 0.109 | 0.101 | 0.683 | 0.551 | 0.394 | 0.52 | 0.435 | 0.607 | 0.501 | 0.589 | 0.226 | 0.179 | 0.803 | 0.2
5 | NCI-H460 | 0.668 | 0.857 | 0.0257 | 0.0172 | 0.181 | 0.155 | 0.0455 | 0.0161 | 0.719 | 0.864 | 0.582 | 0.0258 | 0.0195 | 0.696 | 0.606 | 0.578 | 0.0297 | 0.0153 | 0.678 | 0.283
6 | NCI-H520 | 0.825 | 0.177 | 0.15 | 0.138 | 0.198 | 0.169 | 0.141 | 0.131 | 0.925 | 0.891 | 1.12 | 0.583 | 0.262 | 0.289 | 0.286 | 0.214 | 0.165 | 0.128 | 0.713 | 0.18
7 | NCI-H647 | 0.492 | 0.0536 | 0.0218 | 0.0184 | 0.385 | 0.426 | 0.0189 | 0.0229 | 1.14 | 1.13 | 1.11 | 0.317 | 0.254 | 0.706 | 0.628 | 0.668 | 0.13 | 0.0671 | 0.583 | 0.251
8 | NCI-H661 | 0.747 | 0.758 | 0.269 | 0.295 | 0.4 | 0.434 | 0.284 | 0.203 | 0.598 | 0.564 | 0.66 | 0.529 | 0.735 | 0.774 | – | 0.599 | 0.39 | 0.217 | 0.74 | 0.409
